Test results published in patent publication US20090197916A1, “SOLUBLE EPOXIDE HYDROLASE INHIBITORS FOR TREATMENT OF METABOLIC SYNDROME AND RELATED DISORDERS” (Arete Therapeutics, Inc, priority 2007, published 2009).
Blank lines part the entries; values can stand above or below the molecule they belong to.

Legend:
sEH [1] = target: T1, sEH (Homo sapiens, UniProt P34913); assay: sEH inhibition, fluorescent assay with CMNPC substrate (percent inhibition and IC50); format: biochemical; conditions: Concentration 2000 nM
T1 sequence (P34913 1-555): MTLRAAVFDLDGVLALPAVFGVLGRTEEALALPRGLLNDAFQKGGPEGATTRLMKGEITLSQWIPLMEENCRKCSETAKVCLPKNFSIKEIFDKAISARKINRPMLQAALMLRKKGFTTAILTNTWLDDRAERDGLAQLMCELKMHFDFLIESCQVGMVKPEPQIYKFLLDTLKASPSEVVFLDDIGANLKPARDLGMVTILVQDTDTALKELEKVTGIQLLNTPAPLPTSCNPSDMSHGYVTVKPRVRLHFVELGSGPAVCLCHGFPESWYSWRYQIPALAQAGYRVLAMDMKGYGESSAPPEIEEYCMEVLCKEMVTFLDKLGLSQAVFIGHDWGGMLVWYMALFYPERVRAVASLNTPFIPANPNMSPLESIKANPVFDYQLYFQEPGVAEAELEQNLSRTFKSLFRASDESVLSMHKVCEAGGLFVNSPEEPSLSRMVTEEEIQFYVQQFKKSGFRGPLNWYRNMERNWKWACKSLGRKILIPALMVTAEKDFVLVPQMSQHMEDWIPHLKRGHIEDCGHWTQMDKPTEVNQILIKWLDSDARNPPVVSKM
Protocol: The substrate for the reaction was:
Therefore, well A2 would refer to a well in the first row and second column of the plate.
In a black 96 well plate, all the wells are filled with 150 μL of buffer A (Buffer A: Bis/Tris HCl, 25 mM, pH 7.0 plus 0.1 mg/mL BSA). DMSO (2 microliters) was added in well A2 and A3, and then was added 2 μL of inhibitor solution in A1 and A4 through A12. […] The plate was incubated for 5 minutes in the plate reader at 30° C. During incubation, the working solution of substrate was prepared by mixing 3.68 mL of buffer A with 266 μL of 0.5 mM substrate solution. At t=0, 30 μL of working substrate solution was added and readings were started ([S]final: 5 μM).

sEH [2] = target: T1, sEH; assay: sEH enzymatic assay (Compound 6); format: biochemical; conditions: read-out: IC50 for inhibition of sEH, enzymatic assay
sEH [3] = target: T1, sEH; assay: sEH cell based assay (Compound 6); conditions: read-out: IC50 for inhibition of sEH, cell based assay
[4] = tested on: over 100 cardiovascular disease related targets, including hydroxy-methylglutaryl-coenzyme A (HMO CoA) reductase; assay: off-target screen assays; conditions: concentration of 10 μM
PPARγ = target: T2, PPARγ (Homo sapiens, UniProt P37231); assay: standard PPARγ activation assay; format: cell-based; conditions: relative to standard reference
T2 sequence (P37231 1-505): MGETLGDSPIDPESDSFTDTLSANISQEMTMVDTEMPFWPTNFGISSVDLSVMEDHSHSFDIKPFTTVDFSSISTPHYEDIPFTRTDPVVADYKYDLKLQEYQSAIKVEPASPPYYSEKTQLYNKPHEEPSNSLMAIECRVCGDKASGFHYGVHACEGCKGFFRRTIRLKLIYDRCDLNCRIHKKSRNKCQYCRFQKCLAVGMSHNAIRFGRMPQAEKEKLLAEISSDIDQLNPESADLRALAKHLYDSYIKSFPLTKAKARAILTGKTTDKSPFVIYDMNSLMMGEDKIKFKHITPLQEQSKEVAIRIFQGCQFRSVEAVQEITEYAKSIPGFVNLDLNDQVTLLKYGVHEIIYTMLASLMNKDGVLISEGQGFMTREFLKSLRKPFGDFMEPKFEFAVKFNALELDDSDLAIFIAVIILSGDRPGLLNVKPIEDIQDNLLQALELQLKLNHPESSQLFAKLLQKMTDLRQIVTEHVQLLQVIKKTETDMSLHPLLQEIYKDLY

pharmacokinetics in mice = format: in vivo; conditions: mouse, plasma
whole blood sEH activity = target: T3, whole blood sEH activity (Mus musculus, UniProt P34914); assay: whole blood sEH activity in apoE KO mice, dosing with drinking water; format: in vivo; conditions: treatment with drinking water
T3 construct: from tissue; host or cells: whole blood of apoE KO mice
T3 sequence (P34914 1-554): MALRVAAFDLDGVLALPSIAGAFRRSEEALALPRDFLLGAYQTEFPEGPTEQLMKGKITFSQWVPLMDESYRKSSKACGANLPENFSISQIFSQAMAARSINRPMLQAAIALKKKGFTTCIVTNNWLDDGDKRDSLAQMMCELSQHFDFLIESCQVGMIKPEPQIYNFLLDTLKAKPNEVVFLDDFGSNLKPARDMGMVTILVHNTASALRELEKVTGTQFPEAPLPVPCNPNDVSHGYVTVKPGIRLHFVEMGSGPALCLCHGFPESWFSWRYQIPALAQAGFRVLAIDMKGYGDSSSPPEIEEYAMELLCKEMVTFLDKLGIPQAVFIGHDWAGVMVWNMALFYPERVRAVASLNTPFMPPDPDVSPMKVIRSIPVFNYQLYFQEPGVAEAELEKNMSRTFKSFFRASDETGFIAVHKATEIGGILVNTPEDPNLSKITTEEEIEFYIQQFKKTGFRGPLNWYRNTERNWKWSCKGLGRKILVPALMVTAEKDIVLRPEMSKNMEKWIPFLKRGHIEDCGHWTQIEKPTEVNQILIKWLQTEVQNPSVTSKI

apoE deficient mice = assay: Model 3: angiotensin II-infused apoE deficient mice with carotid ligation; format: in vivo
Protocol: All protocols were approved by the institutional animal care and use committee at Arête Therapeutics. Six-month old male apoE deficient mice (The Jackson Laboratory, Bar Harbor, Me.) fed a normal chow were used in this study. Baseline blood pressure and body weight were measured before surgery. Animals were anesthetized by inhalation of 2% isoflurane. The left common carotid artery carefully dissected via a midline neck incision under a dissecting microscope, and the left common carotid artery was ligated with a 6-0 silk ligature just proximal to its bifurcation. At the time of ligation, animals were subcutaneously implanted with a minipump (model 2004, Durect Corp., Cupertino, Calif.) filled with Ang II (1.44 mg/Kg/day, Phoenix Pharmaceuticals, Burlingame, Calif.). The animals were randomly divided into 2 groups; Vehicle: drinking water containing 5% hydroxypropyl-beta-cyclodextrin (HPBCD) or Compound 6: drinking water containing 1.5 mg/ml Compound 6 in 5% HPBCD. Each experimental group included 11 animals. After 4 weeks of Ang TI infusion, systolic blood pressure was measured in conscious mice using a tail-cuff system (Kent Scientific Corporation, Torrington, Conn.), and the animals were euthanized. Blood samples were collected via cardiac puncture for the measurement of a serum cholesterol profile (IDEXX Veterinary Services, West Sacramento, Calif.) and serum inflammatory panel (Murigenics, Hayward, Calif.) using a mouse cytokine/chemokine panel kit (Millipore, Billerica, Mass.), and tissues were removed for analysis.
All results are presented as the mean and standard error (SEM). Comparison between the vehicle and Compound 6 treatment groups was performed using Student's t test. The percentage of mice that developed AAA was compared between the two groups using X^2 test.

- inhibition at 2 µM (sEH [1]): 100%
- IC50 (sEH [2]): 1.6 nM
- IC50 (sEH [3]): 8.9 nM
- PPARγ activation relative to troglitzone (100%) (PPARγ): 11%
- bioavailability (pharmacokinetics in mice; AUC oral dose relative to AUC intravenous dose): > 100%
- half-life (pharmacokinetics in mice; intravenous administration, read-out: terminal half life (converted)): ~4 h
- average plasma concentration (whole blood sEH activity): 21 ± 1.8 µg/mL
SMILES: O=C(Nc1ccc(OC(F)(F)F)cc1)NC1CCN(C(=O)c2cccnc2)CC1 [Compound 6, 1-(1-nicotinoylpiperidin-4-yl)-3-(4-(trifluoromethoxy)phenyl)urea]
- activity in off-target screen assays [4]: inactive
- HDL levels compared to vehicle (apoE deficient mice; 4 weeks): significantly higher
- effect on blood pressure, body weights, and food consumption (apoE deficient mice; 4 weeks): no statistical significant effect
- ratio of LDL/HDL relative to vehicle group (apoE deficient mice; 4 weeks): only half of that in vehicle group
- total cholesterol level compared to vehicle (apoE deficient mice; 4 weeks): significantly lower
- triglyceride and glucose levels compared to vehicle (apoE deficient mice; 4 weeks): no significant difference
- Ratio of LDL/HDL (apoE deficient mice; 4 weeks, vehicle 19.6 ± 1.5): 10.5 ± 1.5
- body weight (apoE deficient mice; 4 weeks, vehicle 27 ± 0.7): 28 ± 0.6 g
- HDL (apoE deficient mice; 4 weeks, vehicle 32 ± 3): 46 ± 4 mg/dL
- Blood Glucose (apoE deficient mice; 4 weeks, vehicle 216 ± 22): 185 ± 17 mg/dL
- Triglyceride (apoE deficient mice; 4 weeks, vehicle 301 ± 59): 258 ± 47 mg/dL
- LDL (apoE deficient mice; 4 weeks, vehicle 624 ± 70): 438 ± 28 mg/dL
- Blood Pressure (mmHg) Baseline (apoE deficient mice; Baseline, before surgery and treatment): 101 ± 2 mmHg
- Blood Pressure (mmHg) End (apoE deficient mice; End, after 4 weeks of Ang II infusion, vehicle 137 ± 3): 130 ± 4 mmHg
- atherosclerosis progression and aneurysm formation (apoE deficient mice; apoE deficient mice chronically treated with Ang II): attenuated

- PPARγ activation relative to troglitzone (100%) (PPARγ): 28%
SMILES: CCCCCC1OC1C/C=C\C/C=C\C/C=C\CCCC(=O)O (centres unmarked) [14, 15 EET, reference compound]
